According to article PMC10629583, “Specific inhibition of an anticancer target, polo-like kinase 1, by allosterically dismantling its mechanism of substrate recognition” (Proceedings of the National Academy of Sciences of the …, 2023):
“Also recorded” adds a separate entry of the source. Values belong to the compound of their own block, whether it stands above or below them. [ ]: non-standard residue; d: D form. The star is where a group is joined. FITC = O=C1OC2(c3ccc(O)cc3Oc3cc(O)ccc32)c2ccc(NC(=S)*)cc21; pT = C[C@@H](OP(=O)(O)O)[C@H](N)C(=O)O; Ahx = NCCCCCC(=O)O

Legend:
[1] = biological target: BZP Rat brain site; assay: PDSP off-target binding screen; conditions: read-out: Secondary screen Ki
Text: (§1) PDSP no. Compound Interactions (Ki, µM)
(§2) 60477 Allopole-A None observed.
(§3) trigger a secondary screen at that receptor.

[2] = biological target: T1, Plk3 PBD (PBD3) (Homo sapiens, UniProt Q9H4B4); assay: FP-based inhibition assay, PBD3; format: binding; conditions: bacterially expressed purified PBD, FITC-ligand 15 nM, PBD at EC85
T1 construct: MBP-PBD3-His (335–646) (pKM3359) and its A612F (pKM7981); His (C); made in house; host or cells: bacteria (E. coli)
T1 sequence (Q9H4B4 335-646): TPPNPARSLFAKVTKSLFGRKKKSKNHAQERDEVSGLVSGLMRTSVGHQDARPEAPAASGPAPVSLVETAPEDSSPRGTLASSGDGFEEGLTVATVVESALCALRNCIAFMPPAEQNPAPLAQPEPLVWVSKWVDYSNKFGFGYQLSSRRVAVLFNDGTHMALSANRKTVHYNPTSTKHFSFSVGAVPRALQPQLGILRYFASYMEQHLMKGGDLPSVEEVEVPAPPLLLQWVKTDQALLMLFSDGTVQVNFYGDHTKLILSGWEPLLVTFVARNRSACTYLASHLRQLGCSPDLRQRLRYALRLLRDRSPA
Protocol: (§4) FP assays were carried out essentially as described previously ([35], [36]). FITC-conjugated ligands (15 nM) were mixed with PBDs at their EC85 concentrations. All the samples were analyzed approximately 30 min after reaction in a 384-well format using the SpectraMax Paradigm multimode microplate detection platform (Molecular Devices). Data were analyzed after carrying out at least three independent experiments using GraphPad Prism software version 8.

[3] = biological target: T2, Plk1 PBD (PBD1) (Homo sapiens, UniProt P53350); assay: FP-based inhibition assay, PBD1; format: binding; conditions: FP, bacterially expressed purified PBD, FITC-ligand 15 nM, PBD at EC85; read-out: PBD1 IC50 ± SD
T2 construct: constructs expressing PBD1 (residues 345–603) WT (pKM7650); His; TEV site (N); made in house; host or cells: bacteria (E. coli)
T2 sequence (P53350 345-603): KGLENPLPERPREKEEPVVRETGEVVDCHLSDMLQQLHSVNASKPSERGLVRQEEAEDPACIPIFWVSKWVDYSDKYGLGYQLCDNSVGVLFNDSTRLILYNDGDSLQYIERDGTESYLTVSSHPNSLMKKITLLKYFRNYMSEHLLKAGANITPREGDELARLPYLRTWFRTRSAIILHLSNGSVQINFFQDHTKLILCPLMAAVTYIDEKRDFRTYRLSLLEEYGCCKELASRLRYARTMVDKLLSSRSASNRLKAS
Protocol: as §4, with “FITC-conjugated ligands (15 nM) were mixed with PBDs at their EC85 concentrations.” left out

[4] = test system: L363 cells; assay: MTS cell viability assay, L363 cells; format: cell-based; conditions: 48 h treatment
[5] = biological target: T3, full-length Plk1 (Homo sapiens, UniProt P53350); assay: ELISA-based PBD1-binding inhibition assay; conditions: total lysates from HEK293A cells expressing full-length Plk1; biotinylated PBIP1 p-T78 peptide; read-out: Anti-Plk1 (full length) ELISA (IC50) Mean ± SEM
T3 construct: expressed in transfected cells; host or cells: HEK293A cells infected with adenovirus; total lysate
T3 sequence (P53350 whole entry): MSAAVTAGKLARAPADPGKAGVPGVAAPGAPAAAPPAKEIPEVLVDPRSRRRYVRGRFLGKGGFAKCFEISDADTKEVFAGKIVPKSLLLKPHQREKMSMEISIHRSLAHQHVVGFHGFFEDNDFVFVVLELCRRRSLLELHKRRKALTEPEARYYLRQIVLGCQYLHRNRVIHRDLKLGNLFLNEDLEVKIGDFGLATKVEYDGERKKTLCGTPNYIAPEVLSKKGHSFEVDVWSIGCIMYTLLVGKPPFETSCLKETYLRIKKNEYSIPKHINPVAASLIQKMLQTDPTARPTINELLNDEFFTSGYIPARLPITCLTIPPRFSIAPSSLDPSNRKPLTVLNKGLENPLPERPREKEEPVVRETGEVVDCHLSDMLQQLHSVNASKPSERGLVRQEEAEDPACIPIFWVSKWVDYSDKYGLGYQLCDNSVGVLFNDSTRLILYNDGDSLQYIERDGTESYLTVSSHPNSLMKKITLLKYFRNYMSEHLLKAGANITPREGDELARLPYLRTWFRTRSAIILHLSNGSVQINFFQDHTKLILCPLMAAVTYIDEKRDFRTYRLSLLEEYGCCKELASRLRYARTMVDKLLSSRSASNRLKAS

[6] = biological target: T4, Plk2 PBD (PBD2) (Homo sapiens, UniProt Q9NYY3); assay: FP-based inhibition assay, PBD2; format: binding; conditions: bacterially expressed purified PBD, FITC-ligand 15 nM, PBD at EC85
T4 construct: Purification of PBD2-His (355–685) (pKM3358) and its S652F mutant (pKM7980); His (C); made in house; host or cells: bacteria (E. coli)
T4 sequence (Q9NYY3 355-685): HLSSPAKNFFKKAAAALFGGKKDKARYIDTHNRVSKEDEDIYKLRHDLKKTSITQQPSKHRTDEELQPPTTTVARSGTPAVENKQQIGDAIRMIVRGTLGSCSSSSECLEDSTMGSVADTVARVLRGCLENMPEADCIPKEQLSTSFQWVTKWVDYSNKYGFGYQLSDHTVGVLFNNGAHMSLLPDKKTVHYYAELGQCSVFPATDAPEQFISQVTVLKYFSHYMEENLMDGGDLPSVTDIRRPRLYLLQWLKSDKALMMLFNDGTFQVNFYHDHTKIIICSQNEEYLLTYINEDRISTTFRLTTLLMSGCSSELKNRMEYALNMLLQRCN
Protocol: as §4, with “FITC-conjugated ligands (15 nM) were mixed with PBDs at their EC85 concentrations.” left out

[7] = Conversion of prodrug 6 to active species 5 by GSH (HPLC); format: physicochemical; conditions: room temperature, after 5 min
Protocol: To a solution of 6 (1.0 mg, 2.4 µmol) in 0.800 mL of MeOH-d4 was added a solution of glutathione (1.1 mg, 3.6 µmol) and sodium carbonate (0.76 mg, 7.2 µmol) in 0.200 mL of D2O. The reaction was stirred at room temperature and sampled at 5, 10, 20, and 60 min. Aliquots were flash-frozen on dry ice and always stored at −80 °C. HPLC and mass spectrometry were used to analyze the reaction mixtures.
HPLC analysis of both pure 6 (rt = 13.95 min) and 5 (rt = 11.16 min) using the method of acetonitrile 05 to 95% and 10 mM triethylammonium acetate 95 to 5% in 20 min gave standards to compare against the reaction mixture. The HPLC analysis of the reaction mixture, compared to standards, was performed using a Hewlett−Packard 1100 HPLC equipped with an Agilent Eclipse 5 µm XDB-C18 analytical column (50 mm × 4.6 mm; Agilent Technologies Inc.).

[8] = test system: 45 receptors and channels; assay: PDSP off-target screen (whole panel); format: binding, human
Text: as §1, §2, §3

[9] = Solubility in PBS (imaging of insoluble particles, dynamic light scattering); format: physicochemical; conditions: PBS buffer (pH 7.4)
Protocol: All samples were analyzed after adjusting the concentration to 100 μM solution in the PBS buffer (pH 7.4) containing 1% DMSO. The measurements were carried out at 25 °C using the DynaPro NanoStar system (Wyatt Technology). The intensity of the scattered light was measured as a function of time, and the resulting data were used to calculate the size and distribution of the particles in the sample. Collected data were analyzed using the DYNAMICS software to calculate the mean size and polydispersity index of the particles in the sample. At least three repeat measurements were performed to ensure that the results were accurate and reproducible.
Fig. S1. Solubility and activity of Allopole and its related compounds. (A) Images showing insoluble
particles of 200 µM of the indicated compounds dissolved in the PBS buffer. The aggregates of […]

[10] = test system: Flag-Plk2 K108M; assay: Pulldown with biotinylated compound 22, Plk2; format: binding; conditions: streptavidin agarose, anti-Flag immunoblot
Protocol: (§5) A mixture of total cell lysates expressing Flag-Plk1 K82M (pKL577), Flag-Plk2 K108M (pKL1416), or Flag-Plk3 K52R (pKM203) (a gift from Wei Dai, New York University School of Medicine, NY) was prepared in TBSN buffer and incubated with a biotinylated Allopole-A-derivative, 22, or biotin alone. The resulting samples were then subjected to pulldown analyses with streptavidin agarose bead (Thermo Fisher Scientific), after which they were separated by SDS-PAGE and immunoblotted with anti-Flag antibody.

[11] = test system: Flag-Plk1 K82M; assay: Pulldown with biotinylated compound 22, Plk1; format: binding; conditions: streptavidin agarose, anti-Flag immunoblot
Protocol: as §5

[12] = biological target: T5, Flag-Plk3 K52R (Homo sapiens, UniProt Q9H4B4, K91R); assay: Pulldown with biotinylated compound 22, Plk3; format: binding; conditions: streptavidin agarose, anti-Flag immunoblot
T5 construct: expressed in transfected cells; host or cells: HEK293 cells; mixed total lysates
T5 sequence (Q9H4B4 40-646 K91R limits assumed): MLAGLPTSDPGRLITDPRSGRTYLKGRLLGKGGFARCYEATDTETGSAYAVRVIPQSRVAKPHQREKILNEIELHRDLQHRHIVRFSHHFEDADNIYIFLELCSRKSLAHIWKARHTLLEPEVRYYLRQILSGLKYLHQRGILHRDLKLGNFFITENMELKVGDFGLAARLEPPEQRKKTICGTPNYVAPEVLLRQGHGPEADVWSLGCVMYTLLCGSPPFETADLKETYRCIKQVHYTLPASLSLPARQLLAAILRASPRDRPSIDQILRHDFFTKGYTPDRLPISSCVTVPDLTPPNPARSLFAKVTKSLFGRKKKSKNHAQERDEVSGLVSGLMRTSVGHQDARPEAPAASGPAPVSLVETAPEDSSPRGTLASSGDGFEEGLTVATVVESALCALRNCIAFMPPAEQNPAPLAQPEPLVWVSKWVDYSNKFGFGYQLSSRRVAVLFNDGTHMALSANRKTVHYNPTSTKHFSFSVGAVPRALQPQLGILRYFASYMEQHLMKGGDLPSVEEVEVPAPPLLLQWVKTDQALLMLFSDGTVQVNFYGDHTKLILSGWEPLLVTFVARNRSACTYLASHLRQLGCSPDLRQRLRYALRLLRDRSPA
Protocol: as §5

[13] = biological target: T6, PBD1 F559R mutant (Homo sapiens, UniProt P53350, F559R); assay: FP-based binding/inhibition assay, PBD1 F559R; conditions: FP binding, PBD1 F559R vs WT
T6 construct: constructs expressing PBD1 (residues 345–603) WT (pKM7650); His; TEV site (N); made in house; host or cells: bacteria (E. coli)
T6 sequence (P53350 345-603 F559R): as the sequence (P53350 345-603) above, with F215R counted along it
Protocol: as §4
(§6) Fig. S4. Generation of F559 mutants for in vitro and cell-based assays in Fig. 4. (A) SDS-PAGE showing the proteins used for the FP assays in Fig. 4 A and B. CBB, a Coomassie Brilliant Blue– stained gel. (B) Summary of Kd and EC85 values for PBD1 WT and mutants. The Kd values for PBD1 WT and mutants were determined after extrapolating them from the binding curves as the concentration at which 50% of the FITC-Ahx-DPPLHSpTAI-NH2 are PBD1-bound. The EC85 values indicate the effective concentration of 85% of the maximal concentration calculated for each protein. The FP values were obtained 30 minutes after incubation. For the F559K and F559R mutants, we were not able to determine the EC85 values and therefore used 2 µM of these proteins for the assays in Fig. 4B. N.D., not determined. […]

[14] = biological target: T7, PBD1 F559K mutant (Homo sapiens, UniProt P53350, F559K); assay: FP-based binding/inhibition assay, PBD1 F559K; conditions: FP binding, PBD1 F559K vs WT
T7 construct: constructs expressing PBD1 (residues 345–603) WT (pKM7650); His; TEV site (N); made in house; host or cells: bacteria (E. coli)
T7 sequence (P53350 345-603 F559K): as the sequence (P53350 345-603) above, with F215K counted along it
Protocol: as §4, §6

[15] = biological target: T8, PBD1 F559D mutant (Homo sapiens, UniProt P53350, F559D); assay: FP-based binding/inhibition assay, PBD1 F559D; conditions: FP binding, PBD1 F559D vs WT
T8 construct: constructs expressing PBD1 (residues 345–603) WT (pKM7650), F559D (pKM7878); His; TEV site (N); made in house; host or cells: bacteria (E. coli)
T8 sequence (P53350 345-603 F559D): as the sequence (P53350 345-603) above, with F215D counted along it
Protocol: as §4, §6

[16] = biological target: T9, PBD1 F559E mutant (Homo sapiens, UniProt P53350, F559E); assay: FP-based binding/inhibition assay, PBD1 F559E; conditions: FP binding, PBD1 F559E vs WT
T9 construct: constructs expressing PBD1 (residues 345–603) WT (pKM7650), F559D (pKM7878), F559E (pKM7879); His; TEV site (N); made in house; host or cells: bacteria (E. coli)
T9 sequence (P53350 345-603 F559E): as the sequence (P53350 345-603) above, with F215E counted along it
Protocol: as §4, §6

[17] = test system: cultured cells; design: method as in PMID 31685831; conditions: cited from earlier work

Compound: Cc1cc2c(s1)c(=O)n(CC1CC1)c1n[nH]c(=S)n21 [compound 5]
Ki [1]: 0.41 µM | PBD3 IC50 ± SD [2]: N. S. | IC50 [3]: 0.0128 ± 0.0026 µM | Cell efficacy (GI50) Mean ± SD [4]: N. S. | IC50 [5]: 1.66 ± 0.04 µM | PBD2 IC50 ± SD [6]: N. S.

Compound: FITC-Ahx-DPPLHSpTAI-NH2 ({FITC-Ahx}-DPPLHS[pT]AI-NH2; SMILES CC[C@H](C)[C@H](NC(=O)[C@H](C)NC(=O)[C@@H](NC(=O)[C@H](CO)NC(=O)[C@H](Cc1c[nH]cn1)NC(=O)[C@H](CC(C)C)NC(=O)[C@@H]1CCCN1C(=O)[C@@H]1CCCN1C(=O)[C@H](CC(=O)O)NC(=O)CCCCCNC(=S)Nc1ccc2c(c1)C(=O)OC21c2ccc(O)cc2Oc2cc(O)ccc21)[C@@H](C)OP(=O)(O)O)C(N)=O) [FITC-conjugated phosphopeptide, FP probe, reference compound]
Decrease in affinity of the FITC-phosphopeptide compared to WT [13]: > 42 fold | Decrease in affinity of the FITC-phosphopeptide compared to WT [14]: more than 27 fold | Decrease in affinity of the FITC-phosphopeptide compared to WT [15]: 1.7 fold | Decrease in affinity of the FITC-phosphopeptide compared to WT [16]: approximately sevenfold decreased affinity

Compound: Polotyrin
GI50 [17]: a few hundred

More lines, main results first:

Conversion of prodrug to active species by GSH (in words) [7]: complete conversion | IC50 [5]: > 50 µM | Interactions (Ki, µM), summary of PDSP screen (in words) [8]: None observed | Solubility (in words) [9]: low solubility
Compound: Cc1cc2c(s1)c(=O)n(CC1CC1)c1nnc(Sc3c([N+](=O)[O-])ncn3C)n21 [compound 6]
GI50 ([4]; read-out: Cell efficacy (GI50) Mean ± SD): 3.13 ± 0.15 µM

IC50 [5]: 9.32 ± 0.17 µM | Pulldown of Plk3 from mixed total lysates (in words) [12]: not Plk2 or Plk3
Compound: O=C(CCCCC1SCC2NC(=O)NC21)NCCOCCOCCOCCOCCC(=O)NCCCn1c(=O)c2cc(F)ccc2n2c(=S)[nH]nc12 (centres unmarked) [compound 22]
Pulldown of Plk2 from mixed total lysates (in words) [10]: not Plk2 or Plk3 | Pulldown of Plk1 from mixed total lysates (in words) [11]: precipitated the full-length Plk1; also recorded: specifically interacts with
